Results from patent US8614218B2, “Fused bicyclic pyrimidines” (Bayer Intellectual Property GmbH, priority 2007, dated 2013).

Tests used:
phospho-Akt (Ser473) = assay: Cellular PI3K/Akt pathway assay (phospho-Akt ELISA); assay type: cell-based; settings: Homo sapiens, MCF7 cells, β-Heregulin stimulated, 48 h incubation
Description: Cellular PI3K/Akt Pathway Assay
In order to study the cellular activity of the compounds according to the present invention, an Enzyme Linked Immunosorbent Assay (ELISA)-based assay has been used specific phospho-AKT. The assay is based on a Sandwich ELISA kit (PathScan™ Phospho-Akt1 (Ser473); Cell Signaling, USA; #7160). The ELISA Kit detects endogenous levels of phosphorylated Akt protein. A phospho-Akt (Ser473) antibody (Cell Signaling, USA; #9271) has been coated onto the microwells. After incubation with cell lysates, the coated antibody captures the phosphorylated Akt protein. Following extensive washing, Akt1 monoclonal antibody (Cell Signaling, USA; #2967) is added to detect the captured phospho-Akt1 protein. HRP-linked anti-mouse antibody (HRP: horseradish peroxidase; Cell Signaling, USA; #7076) is then used to recognize the bound detection antibody. HRP substrate (=3,3′,5,5′-tetramethylbenzidine (TMB); Cell Signaling, USA; #7160) is added to develop colour. The magnitude of optical density for this developed color is proportional to the quantity of phosphorylated Akt protein.
MCF7 cells (ATCC HTB-22) are seeded into 96 well fate bottom plates at a density of 10000 cells/well. 24 hours after seeding, the cells are serum starved using low-serum medium (IMEM media including 0.1% charcoal treated FCS (FCS: fetal calf serum)). After 24 hours 1 μl each of the compound dilutions (test compounds were dissolved as 10 mM solutions in dimethylsulfoxide (DMSO) and subsequently diluted) are added into each well of the 96 well plates and incubated for 48 h at 37° C. in a humidified atmosphere containing 5% CO2. To stimulate Akt phosphorylation, β-Heregulin (20 ng/ml β-HRG) is added in parallel to the compounds. Wells containing unstimulated control cells (no β-Heregulin stimulation) are incubated with or without the diluted compound. Wells containing untreated control cells (no compound) are filled with medium containing 0.5% v:v DMSO and are or are not stimulated with β-Heregulin.
Cells are harvested and lysed with brief sonification in 1× cell lysis buffer (20 mM Tris (pH7.5), 150 mM NaCl, 1 mM ethylene diaminetetraacetate (EDTA), 1 mM ethylene glycolbis(2-aminoethyl)-N,N,N′,N′-tetraacetic acid (EGTA), 1 vol % Triton X-100, 2.5 mM sodium pyrophosphate, 1 mM β-glycerolphosphate, 1 mM Na3VO4, 1 μg/ml leupeptin). The lysate is centrifuged for 10 min. at 4° C. and the supernatant is transferred to a new tube. 100 μl of sample diluent (0.1 vol % Tween-20, 0.1 vol % sodium azide in phosphate buffered saline (PBS)) are added to a microcentrifuge tube and 100 μl of cell lysate are transferred into the tube and vortexed. 100 μl of each diluted cell lysate are added to the appropriate ELISA well, and incubated overnight at 4° C. The plates are washed 4 times with 1× wash buffer (1 vol % tween-20, 0.33 vol % thymol, in PBS). Next 100 μl of detection antibody (Akt1 (2H10) monoclonal detection antibody; Cell Signaling, USA; #2967) are added to each well and incubation continued for 1 h at 37° C. The washing procedure is repeated between each step. 100 μl of secondary antibody (anti-mouse IgG HRP-linked antibody; Cell Signaling, USA; #7076) are added to each well and incubated for 30 min. at 37° C. Than, 100 μl of TMB substrate (0.05% 3,3′,5,5′ tetramethylbenzidine, 0.1% hydrogen peroxide, complex polypeptides in a buffered solution; Cell Signaling, USA; #7160) are added to each well and incubated for 30 min. at 25° C. Finally 100 μl of STOP solution (0.05 vol % α and β unsaturated carbonyl compound) are added to each well and the plate are shaked gently. The absorbance is measured at λ=450 nm (Wallac Victor2; Perkin Elmer, USA) within 30 min. after adding the STOP solution. The analysis of the data is performed using a statistical program (Excel; Microsoft, USA). Preferred compounds show an inhibitory activity towards Akt phosphorylation below 10 μM.

phospho-GSK3 (Ser9) = assay: Cellular pGSK3 assay (phospho-GSK3 ELISA); assay type: cell-based; settings: Homo sapiens, MCF7 cells, 48 h incubation, read-out: Cellular pGSK3 pathway assay
Experimental: In order to study the cellular activity of the compounds according to the present invention, an ELISA-based assay has been established for the phosphorylated protein glycogen synthetase kinase 3 (GSK3). The assay is based on a solid phase sandwich ELISA that detects endogenous levels of phosphorylated GSK3 using a phospho-GSK3 (Ser9) specific antibody (BioSource International, Inc.; Catalog #KHO0461). After incubation with cell lysates, the coated antibody captures the phosphorylated GSK3 protein. Following extensive washing, GSK3 polyclonal antibody is added to detect the captured phospho-GSK3 protein. Secondary antibody (anti-rabbit IgG-HRP) is then used to recognize the bound detection antibody. After the second incubation and washing to remove all the excess anti-rabbit IgG-HRP, a substrate solution is added, which is acted upon by the bound enzyme to produce color. The intensity of this colored product is directly proportional to the concentration of GSK-3β [pS9] present in the original specimen. MCF7 cells (ATCC HTB-22) were seeded into 96 well fate bottom plates at a density of 10000 cells/well. After 24 h 1 μl each of the compound dilutions (test compounds were dissolved as 10 mM solutions in dimethylsulfoxide (DMSO) and subsequently diluted) were added into each well of the 96 well plates and incubated for 48 h at 37° C. in a humidified atmosphere containing 5% CO2. Cells were harvested and lysed in cell extraction buffer (10 mM Tris, pH 7.4, 100 mM NaCl, 1 mM EDTA, 1 mM EGTA, 1 mM NaF, 20 mM Na4P2O7, 2 mM Na3VO4, 1% Triton X-100, 10 vol % glycerol, 0.1 vol % SDS, 0.5 vol % deoxycholate, 1 mM phenylmethylsulfonylfluoride (PMSF)). The lysate were centrifuged for 10 min. at 4° C. and the supernatant were transferred to a new tube. 50 μl of sample diluent (standard diluent buffer, Biosource) were added and 100 μl of cell lysate transferred into the tube and vortexed. 100 μl of each diluted cell lysate were added to the appropriate ELISA well plate and incubated for 3 h at room temperature. The plates were washed 4 times with 1× wash buffer (Biosource). 50 μl of detection antibody (GSK3 (Ser9) detection antibody; BioSource) were added to each well and incubated for 30 min. at room temperature. The washing procedure was repeated between each step. 100 μl of HRP-linked secondary antibody (anti-mouse IgG HRP-linked antibody) were added to each well and incubated for 30 min. at room temperature. 100 μl of TMB substrate (0.05 vol % 3,3′,5,5′ tetramethylbenzidine, 0.1 vol % hydrogen peroxide, complex polypeptides in a buffered solution; Biosource) were added to each well and incubated for 30 min. at room temperature. Finally 100 μl of Stop solution (0.05 vol % α and β unsaturated carbonyl compound) were added to each well and the plate were shaked gently for a few seconds. The absorbance was measured at λ=450 nm (Wallac Victor2; Perkin Elmer, USA) within 30 min. after adding the stop solution.
The analysis of the data was performed using a statistical program (Excel; Microsoft, USA) and the IC50 of pGSK3 inhibition was determined.

| Structure (SMILES) | IC50 (phospho-Akt (Ser473)) | IC50 (phospho-GSK3 (Ser9)) |
| --- | --- | --- |
| Fc1cnc2nc(-c3ccc(CN4CCC(c5n[nH]c(-c6ncccn6)n5)CC4)cc3)c(-c3ccccc3)cn12 [Example 25, 3-fluoro-6-phenyl-7-(4-{[4-(5-pyrimidin-2-yl-1H-1,2,4-triazol-3-yl)piperidin-1-yl]methyl}phenyl)imidazo[1,2-a]pyrimidine] | < 1000 nM | > 10000 nM |
| Cc1cccc(-c2nc(C3CCN(Cc4ccc(-c5nc6nccn6cc5-c5ccccc5)cc4)CC3)n[nH]2)n1 [Example 36, 7-[4-({4-[5-(6-Methylpyridin-2-yl)-1H-1,2,4-triazol-3-yl]piperidin-1-yl}methyl)phenyl]-6-phenylimidazo[1,2-a]pyrimidine] | < 1000 nM | < 1000 nM |
| CC(c1ccc(-c2nc3nccn3cc2-c2ccccc2)cc1)N1CCC(c2n[nH]c(-c3ccccn3)n2)CC1 (racemic) [Example 23, 6-phenyl-7-(4-{1-[4-(5-pyridin-2-yl-1H-1,2,4-triazol-3-yl)piperidin-1-yl]ethyl}phenyl)imidazo[1,2-a]pyrimidine] | < 1000 nM | > 10000 nM |
| Fc1cnc2nc(-c3ccc(CN4CCC(c5n[nH]c(-c6cnccn6)n5)CC4)cc3)c(-c3ccccc3)cn12 [Example 24, 3-fluoro-6-phenyl-7-(4-{[4-(5-pyrazin-2-yl-1,2,4-triazol-3-yl)piperidin-1-yl]methyl}phenyl)imidazo[1,2-a]pyrimidine] | < 1000 nM | 1000 to 10000 nM |
| Cc1ccnc(-c2nc(C3CCN(Cc4ccc(-c5nc6nccn6cc5-c5ccccc5)cc4)CC3)n[nH]2)c1 [Example 35, 7-[4-({4-[5-(4-Methylpyridin-2-yl)-1H-1,2,4-triazol-3-yl]piperidin-1-yl}methyl)phenyl]-6-phenylimidazo[1,2-a]pyrimidine] | < 1000 nM | 1000 to 10000 nM |

Further lines, results first:

| IC50 (phospho-Akt (Ser473)) | IC50 (phospho-GSK3 (Ser9)) | Structure (SMILES) |
| --- | --- | --- |
| < 1000 nM | 1000 to 10000 nM | C#Cc1cnn2cc(-c3ccccc3)c(-c3ccc(CN4CCC(c5n[nH]c(-c6ccccn6)n5)CC4)cc3)nc12 [Example 33, 3-Ethynyl-6-phenyl-5-(4-{[4-(5-pyridin-2-yl-1H-1,2,4-triazol-3-yl)piperidin-1-yl]methyl}phenyl)pyrazolo[1,5-a]pyrimidine] |
| < 1000 nM | 1000 to 10000 nM | CCc1cnn2cc(-c3ccccc3)c(-c3ccc(CN4CCC(c5n[nH]c(-c6ccccn6)n5)CC4)cc3)nc12 [Example 34, 3-Ethyl-6-phenyl-5-(4-{[4-(5-pyridin-2-yl-1H-1,2,4-triazol-3-yl)piperidin-1-yl]methyl}phenyl)pyrazolo[1,5-a]pyrimidine] |
| < 1000 nM | < 1000 nM | Clc1cnn2cc(-c3ccccc3)c(-c3ccc(CN4CCC(c5n[nH]c(-c6ccccn6)n5)CC4)cc3)nc12 [Example 30, 3-Chloro-6-phenyl-5-(4-{[4-(5-pyridin-2-yl-1H-1,2,4-triazol-3-yl)piperidin-1-yl]methyl}phenyl)pyrazolo[1,5-a]pyrimidine] |
| < 1000 nM | < 1000 nM | N#Cc1cnn2cc(-c3ccccc3)c(-c3ccc(CN4CCC(c5n[nH]c(-c6ccccn6)n5)CC4)cc3)nc12 [Example 32, 6-Phenyl-5-(4-{[4-(5-pyridin-2-yl-1H-1,2,4-triazol-3-yl)piperidin-1-yl]methyl}phenyl)pyrazolo[1,5-a]pyrimidine-3-carbonitrile] |
| < 1000 nM | < 1000 nM | Brc1cnn2cc(-c3ccccc3)c(-c3ccc(CN4CCC(c5n[nH]c(-c6ccccn6)n5)CC4)cc3)nc12 [Example 31, 3-Bromo-6-phenyl-5-(4-{[4-(5-pyridin-2-yl-1H-1,2,4-triazol-3-yl)piperidin-1-yl]methyl}phenyl)pyrazolo[1,5-a]pyrimidine] |
| < 1000 nM | < 1000 nM | CCc1nc2nc(-c3ccc(CN4CCC(c5n[nH]c(-c6ccccn6)n5)CC4)cc3)c(-c3ccccc3)cn2n1 [Example 40, 2-Ethyl-6-phenyl-5-(4-{[4-(5-pyridin-2-yl-1H-1,2,4-triazol-3-yl)piperidin-1-yl]methyl}phenyl)[1,2,4]triazolo[1,5-a]pyrimidine] |
